Measurements reported in article PMC11671014 (PLOS Pathogens, 2024).
Entries after “also recorded” stand apart in the source; their conditions may differ. Like-named read-outs stand apart in the source and are kept apart here.

How the values were obtained:
[1] = system: P. falciparum (strain 3D7A); assay: Parasite Reduction Rate (PRR) estimation; format: cell-based, Plasmodium falciparum; conditions: 10 x IC50
Experimental: PRR was assessed using a standardized method. P. falciparum (strain 3D7A, MRA-151), contributed by David Walliker, was obtained through BEI Resources, NIAID, NIH. Cultures of parasites (~90% ring stage) were treated with compounds for 120 h, with daily renewal. Samples of parasites were taken at 0, 24, 48, 72, 96 and 120 h. Compounds were washed out and four independent 3-fold serial dilutions were established in 96-well plates, with fresh RBCs and culture medium. After 18 days, and again at 22 days, samples were taken to examine growth using SYBR Green I in an EnVision Multilabel Plate Reader (Perkin Elmer) and analysed using Excel and Grafit 5.0 software. The human biological samples were sourced ethically, and their research use was in accord with the terms of the informed consents under an IRB/EC approved protocol.

[2] = system: P. falciparum Brazilian field isolates; assay: Ex vivo drug susceptibility of Brazilian field isolates (P. falciparum); format: cell-based; conditions: Plasmodium falciparum
Experimental: (§1) Compounds were assayed on ten P. vivax isolates and seven P. falciparum Brazilian isolates collected from mono-infected patients, who had signed a written informed consent form to participate in the study, using previously described methods. The initial parasitemia ranged from 2,100–8,000 parasites/μL for P. vivax and 3,500–9,000 parasites/μL for P. falciparum isolates. Artesunate and chloroquine were assayed in parallel as standard compounds. The analyses included only the isolates that were incubated for ≥ 40 h with the compounds.

[3] = system: Pf3D7-pfs16-CBG99 gametocytes, immature (stage II/III) and mature (stage V); assay: Gametocyte killing assay (luciferase); format: cell-based; conditions: Plasmodium falciparum, 48 h
Experimental: Gametocytogenesis was induced on a tightly synchronised (>97% rings) asexual parasite culture (Pf3D7-pfs16-CBG99 (kind gift from Pietro Alano), 0.5% parasitemia and 6% hematocrit) with a combination of nutrient starvation and a decrease in hematocrit, as previously described. For immature gametocytes (>90% stage II/III), cultures were exposed to 50 mM N-acetyl glucosamine (NAG) on days 1–4 to eliminate residual asexual parasites and harvested at days 5–6. For mature (>95% stage V) gametocytes, NAG treatment occurred from days 3–7 and harvest at day 13. Stage II/III and V gametocyte cultures (2 % gametocytaemia 1.5 % haematocrit, 150 μL/well) were exposed to compounds and incubated at 37°C for 48 h under hypoxic conditions, after which luciferase activity was determined with a non-lysing D-luciferin substrate (1mM in 0.1M citrate buffer, pH 5.5, 100 μL) and bioluminescence was detected with a 2 s integration time with a GloMax-Multi Detection System with Instinct software.

[4] = system: P. falciparum (Pf3D7^0087/N9); assay: Therapeutic efficacy and tolerability in the SCID mouse P. falciparum model; format: in vivo, Plasmodium falciparum in NODscidIL2Rγ^null mice
Experimental: The model using P. falciparum Pf3D7^0087/N9 in NODscidIL2Rγ^null mice engrafted with human RBCs was adapted from a previously described procedure. Female NODscidIL2Rγ^null mice were purchased from Charles River (Germany). Briefly, two engrafted mice/dosing group (females, 20–22 g) were infected intravenously with 2 x 10^7 P. falciparum (Pf3D7^0087/N9) on day 0. The antimalarial efficacy was assessed following administration (p.o.) of 100 or 200 mg/kg of compound or of 4 daily doses of 50 mg/kg, initiated on day 3 post-infection. The effect on blood parasitemia was measured by microscopic analysis of Giemsa-stained blood smears (on days 3, 4, 5, 6 and 7 post-infection). Mice were euthanized on day 7. Animal were monitored for symptoms of acute toxicity, including decreased activity, sunken flanks, ataxia and blood in faeces.

[5] = system: P. falciparum liver stage schizont (NF175); assay: Liver stage schizont assay in primary human hepatocytes (NF175); format: cell-based; conditions: Plasmodium falciparum, Hepatocyte, 96 h, four days
Experimental: Activity against liver stage parasites was performed using a modification of published procedures. Briefly, cryopreserved human primary hepatocytes (NF175: H1500.H15B+ Lot No. HC0-6, TebuBio or NF135: F00995-P Lot No. IRZ, BioIVT) were thawed and seeded at 18,000 cells per well in collagen-coated 384-well microtiter plates in medium containing 10% heat inactivated fetal bovine serum (hiFBS). Cells were cultured at 37°C in 5% CO2. For NF175, medium was replaced by fresh medium containing 10% hiFBS, 5 h post plating. For NF135, medium was replaced by medium containing 0.2% BSA, 24 h post plating. 48 h post plating, salivary glands from Plasmodium-NF175 or NF135-infected Anopheles stephensi mosquitoes were dissected, added to the hepatocytes (10,000 per well/ NF175; or 12,500 per well/ NF135) and allowed to infect for 3 hours. Sporozoites were then aspirated, and compounds diluted in medium containing 10% hiFBS or 0.2% BSA, were added to the hepatocytes. Medium containing 10% hiFBS or 0.2% BSA and compounds was refreshed daily for four days. […] Cells were imaged on a PicoExpress high content imager, and images were analysed automatically using CellReporterXpress software. Data were analysed by logistic regression using a four-parameter (Hill equation) model and a least-squares method to find the best fit.

[6] = system: P. vivax Brazilian field isolates; assay: Ex vivo drug susceptibility of Brazilian field isolates (P. vivax); format: cell-based; conditions: Plasmodium vivax
Experimental: as §1

[7] = system: CAM 3.II Rev parasites, trophozoite and schizont stages; assay: Pulsed exposure viability of trophozoite and schizont stages, flow cytometry of Syto-61-labelled parasites; format: cell-based, Plasmodium falciparum; conditions: for LD50 Troph: trophozoite
[8] = read-out: Early stage gametocytes IC50
[9] = read-out: Mature stage gametocytes IC50

CC(C)c1nn([C@@H]2O[C@H](COS(N)(=O)=O)[C@@H](O)[C@H]2O)c2ncnc(N)c12 [ML471, ((2R,3S,4R,5R)-5-(4-amino-3-isopropyl-1H-pyrazolo[3,4-d]pyrimidin-1-yl)-3,4-dihydroxytetrahydrofuran-2-yl)methyl sulfamate]
Lag phase [1]: 0 h | Log PRR [1]: 4.1 | PCT99.9% [1]: 32 h | Slope [1]: -0.09 | EC50 ([2]; range over n = 7 isolates, read-out: EC50 range, P. falciparum Brazilian field isolates): 0.0025 to 0.0049 µM | EC50 ([2]; read-out: Median EC50, P. falciparum Brazilian field isolates): 0.0042 µM | IC50 [3, 8]: 0.112 µM | IC50 [3, 9]: 0.392 µM | effect on 3D7 parasitemia, 4 x daily doses ([4]; 4 x daily doses of 50 mg/kg p.o. from day 3 post-infection): reduced the 3D7 parasitemia to baseline | tolerability / toxicity in SCID mice (in words) ([4]; 100 or 200 mg/kg p.o. single dose, 4 x 50 mg/kg p.o.): well tolerated; also recorded: no evidence of toxicity | effect on 3D7 parasitemia, single dose regimen ([4]; either 100 or 200 mg/kg p.o. on day 3 post-infection): reduction of 3D7 parasitemia to baseline | IC50 [5]: 0.0028 µM | EC50 ([6]; range over n = 10 isolates, read-out: EC50 range, P. vivax Brazilian field isolates): 0.0012 to 0.062 µM | EC50 ([6]; read-out: Median EC50, P. vivax Brazilian field isolates): 0.008 µM

Nc1ncnc2c1c(OC(F)F)nn2[C@@H]1O[C@H](COS(N)(=O)=O)[C@@H](O)[C@H]1O [ML901]
IC50 [3, 8]: 0.31 ± 0.06 µM | IC50 [3, 9]: 1.66 ± 0.14 µM | LD50 Schizont ([7]; 30 h continuous): 8.5 ± 0.7 nM | LD50 Schizont ([7]; drug pulse time 3 h): 88 ± 1 nM | LD50 Schizont ([7]; drug pulse time 6 h): 36 ± 6 nM | LD50 Schizont ([7]; drug pulse time 9 h): 21 ± 12 nM | fold lower sensitivity of trophozoite stage compared with schizont stage ([7]; short pulses of 3 h or 6 h): 10 to 20 fold | LD50 Troph ([7]; 48 h continuous): 3.9 ± 0.8 nM | LD50 Troph ([7]; drug pulse time 3 h): 1700 ± 460 nM | LD50 Troph ([7]; drug pulse time 6 h): 680 ± 48 nM | LD50 Troph ([7]; drug pulse time 9 h): 290 ± 150 nM | LD50 Troph ([7]; drug pulse time 24 h): 4.0 ± 0.0 nM
